The values below come from patent US20240358735A1, “THERAPEUTIC COMPOSITIONS AND RELATED METHODS” (BOYCE THOMPSON INSTITUTE FOR PLANT RESEARCH, INC., priority 2021, published 2024).

The subject of test [1] is proteasome alpha and beta subunits. The test can be described thus: Thermal proteome profiling (TPP) of C. elegans lysates. The following applies: compound 0.1 mM; for thermal stability of majority detected proteasome alpha and beta subunits (TPP): C. elegans lysate 1 mg/mL, 15 min room temperature, heated; for thermal stability of proteasome subunit PBS-1 (TPP): FIG. 36, C. elegans lysate. It counts as binding. An excerpt: (§1) To investigate the cellular interactors of MOGLs, two independent approaches were applied: thermal proteome profiling (TPP) and limited proteolysis-coupled mass spectrometry (LiP-MS), to uncover binding events upon compound treatment of C. elegans lysates using MOGLs of the sngl-class as an example. […] Moreover, there were multiple peptides from proteasome alpha subunits and one peptide from the beta unit that were differential, with absence-present contrast, in the LiP-MS experiment (FIG. 35). Results from these two assays which reflect distinct biophysical properties of protein-small molecule binding, strongly support interaction between sngl #1 and sngl #2 with the proteasome.
C. elegans lysate preparation and compound incubation. Synchronized pah-1(syb3596); tph-1(mg280) double knockout C. elegans were grown with ΔtnaA E. coli (JW3686-7) for two generations; growth conditions and harvesting procedures were as described in the ‘Nematode cultures’ section above. Worms were lysed by sonication with lysis buffer (25 mM Tris pH 7.5, 150 mM NaCl, 1.5 mM MgCl2.1 mM phenylmethylsulfonyl fluoride, 1× protease inhibitor cocktail (Roche), 1 mM sodium fluoride) for 5 min (3 s on/off pulse cycle at Amp 100). Protein concentration was determined by Bradford assay (MilliporeSigma) and diluted to 1 mg/mL by lysis buffer. To each aliquot of lysate was added compound (sngl #1, sngl #2, N-acetylserotonin, and solvent (ethanol) control (Mock)) to a final concentration of 0.1 mM and the mixtures were shaken for 15 min at room temperature.
Thermal proteome profiling (TPP) sample preparation. Methods were modified from published protocol (Franken, H., T. et al. Nature Protocols 10(10): 1567-1593). Lysate-compound mixture were aliquoted into 0.2-mL PCR tubes, heated at specified temperatures for 3 min using a Thermal Cycler (BioRad), centrifuged at 16,000 g at 4° C. for 5 min, and the supernatant were transferred into Eppendorf tubes. Four volumes of prechilled (−20° C.) acetone were added to each sample for precipitation of proteins overnight. Samples were centrifuged at 16,000 g at 4° C. for 20 min, washed once by methanol, and the resulting protein pellets were dissolved in urea buffer (50 mM ammonium bicarbonate, 2 M thiourea, 6 M urea). To digest proteins for mass spectrometry analysis, proteins were first reduced by dithiothreitol (final concentration 5 mM) for 30 min at room temperature, alkylated by iodoacetamide (final concentration 15 mM) for 30 min at room temperature in the dark, digested by LysC/Trypsin Mix (Promega) (enzyme/substrate=1/30, w/w) based on manufacturer's instructions. […] Peptides were measured by nanoHPLC-MS/MS by standard methods.

Test [2] shares this test system. The test can be described thus: Limited proteolysis-coupled mass spectrometry (LiP-MS) of C. elegans lysates. It counts as binding. The following applies: FIG. 35; C. elegans lysate, compound 0.1 mM, proteinase K.
Excerpt: as §1
To obtain mechanistic insight into the binding of proteasome with sngl #1/sngl #2, LiP-MS data were analyzed to reveal peptides around sub-structures of proteins where the binding occurs.
C. elegans lysate preparation and compound incubation. Synchronized pah-1(syb3596); tph-1(mg280) double knockout C. elegans were grown with ΔtnaA E. coli (JW3686-7) for two generations; growth conditions and harvesting procedures were as described in the ‘Nematode cultures’ section above. […] Protein concentration was determined by Bradford assay (MilliporeSigma) and diluted to 1 mg/mL by lysis buffer. […]

As to `CC(=O)NCCc1c[nH]c2ccc(O[C@@H]3O[C@H](CO)[C@@H](O)[C@H](OP(=O)(O)O)[C@H]3O)cc12` [sngl #2, (2S,3R,4S,5R,6R)-2-((3-(2-acetamidoethyl)-1H-indol-5-yl)oxy)-3,5-dihydroxy-6-(hydroxymethyl)tetrahydro-2H-pyran-4-yl dihydrogen phosphate], in test [1], the “thermal stability of majority detected proteasome alpha and beta subunits (TPP)” value is listed as “significantly change the thermal stability”; the “thermal stability of proteasome subunit PBS-1 (TPP)” value is reported as “affect the thermal stability”. The “PAS- or PBS-derived peptides detected in LiP-MS” value in test [2] was “indicative of specific binding to PAS and PBS”.

As for `CC(=O)NCCc1c[nH]c2ccc(O[C@@H]3O[C@H](CO)[C@@H](O)[C@H](O)[C@H]3O)cc12` [sngl #1, N-(2-(5-(((2S,3R,4S,5S,6R)-3,4,5-trihydroxy-6-(hydroxymethyl)tetrahydro-2H-pyran-2-yl)oxy)-1H-indol-3-yl)ethyl)acetamide], in test [1], the “thermal stability of majority detected proteasome alpha and beta subunits (TPP)” value is “significantly change the thermal stability”; the “thermal stability of proteasome subunit PBS-1 (TPP)” value is given as “affect the thermal stability”. In test [2], the “PAS- or PBS-derived peptides detected in LiP-MS” value is “indicative of specific binding to PAS and PBS”.
